The source of these data is patent US20070275932A1, “Aryl, heteroaromatic and bicyclic aryl nitrone compounds, prodrugs and pharmaceutical compositions of the same to treat human disorders” (Renovis, Inc., priority 2003, published 2007).

Some results are limits rather than exact numbers.

A short description of the assay: Free radical-scavenging/antioxidant assay (DPPH). The class given is biochemical. Particulars: 50 μM DPPH in 80% methanol, absorbance at 520 nm, 24 h time point (steady state); read-out: EC50 (concentration at which a compound reduces by 50% the peak absorbance of DPPH at 520 nm). The protocol:
Nitrone compounds of the present invention were tested for their free-radical scavenging/antioxidant activity in an in vitro assay that is accepted by those skilled in the art as a model for conditions involving the generation of free radicals. The assay is based on a reaction between a free-radical donor, 2,2-diphenyl-1-picrylhydrazyl (DPPH), and a radical scavenger/antioxidant to be tested for free-radical scavenging activity. Upon donation of the free-radical electron to the purported radical scavenger, the peak visible absorbance of DPPH (515-520 nm) decreases so that optical density readings at this part of the visual spectrum reflect the progression of the following reaction: DPPH∩+AH→DPPH-H+A∩ where AH is a hypothetical radical scavenger/antioxidant. The assay is based on a protocol originally detailed in Brand-Williams, W. et al., 1995, Use of a Free Radical Method to Evaluate Antioxidant Activity, Lebensm. Wiss. Technol., 28:25-30, with further modifications described in L. R. Fukumoto and G. Mazza, 2000, Assessing Antioxidant and Prooxidant Activities of Phenolic Compounds, J. Agric. Food Chem., 48:3597-3604.
The antioxidant assay was performed using Perkin-Elmer 96-well, clear-bottom, black-wall plates (ordered from E & K Scientific Products) and a Tecan Safire absorbance plate reader. The positive controls were Trolox (6-hydroxy-2,5,7,8-tetramethylchromane-2-carboxylic acid, Sigma-Aldrich), BHA (2(3)-tert-butylhydroquinone monomethyl ether, Sigma-Aldrich), PBN (C-(phenyl)-N-(tert-butyl)nitrone, Sigma-Aldrich) and S-PBN (C-(2-sulfophenyl)-N-(tert-butyl)nitrone, sodium salt, prepared according to E. G. Janzen and R. V. Shetty, 1979, Tetrahedron Lett., 35: 3229-32), and the negative control (i.e., vehicle) was DMSO. In brief, 2 μL of 100×DMSO stock of the desired final concentration of each control or nitrone compound to be tested in the same batch was added to a separate well. To each well was then added 198 μL of a freshly made 50 μM DPPH (Sigma-Aldrich) solution in 80% methanol using a multi-channel pipette. The absorbance was immediately read on the plate reader at 520 nm and thereafter read periodically to assess kinetics until all reactions reached completion (i.e., steady state). Since the steady-state point was 24 h, the assay results are shown from the 24 h time point. The absorbance at 520 nm (OD) was plotted versus the concentrations of the controls and nitrone compounds to assess dose-response and interpolate the EC50 values of the controls and test compounds.
(The DPPH test is a chemical assay of radical scavenging.)
Turning to `CSc1ccc(/C=[N+](\[O-])C(C)(C)C)c(SC)c1` [Example 32, N-(tert-Butyl)-C-[2,4-bis(methylthio)phenyl]nitrone], the EC50 was greater than 1000 µM.
The result for `CC(C)(C)/[N+]([O-])=C/c1cc([N+](=O)[O-])ccc1Sc1ccccn1` [Example 36, N-(tert-Butyl)-C-[5-nitro-2-(pyridin-2-ylthio)phenyl]nitrone] reads 100 to 500 µM; that for `[O-]/[N+](=C\c1ccccc1-n1ccnc1)Cc1ccccc1` [Example 16, N-Benzyl-C-[2-(imidazol-1-yl)phenyl]nitrone], greater than 1000 µM; that for `CC(C)Sc1ccccc1/C=[N+](\[O-])C(C)(C)C` [Example 34, N-(tert-Butyl)-C-[2-(isopropylthio)phenyl]nitrone], greater than 1000 µM.
Consider `CC(C)(C)/[N+]([O-])=C/c1ccccc1N1CCN(c2ccc(C(F)(F)F)cn2)CC1` [Example 23, N-(tert-Butyl)-C-{2-[4-(5-(trifluoromethyl)pyridin-2-yl)piperazin-1-yl]phenyl}nitrone], for which the EC50 lay within 100 to 500 µM.
With `[O-]/[N+](=C\c1cccnc1N1CCOCC1)C1CCCCC1` [Example 47, N-Cyclohexyl-C-[2-(1-morpholino)pyridin-3-yl]nitrone], the EC50 was greater than 1000 µM.
Take `CC(C)(C)/[N+]([O-])=C/c1cccnc1N1CCOCC1` [Example 46, N-(tert-Butyl)-C-[2-(1-morpholino)pyridin-3-yl]nitrone]: the EC50 is greater than 1000 µM.
For `CC(C)(C)/[N+]([O-])=C/c1ccccc1C(=O)O` [Example 7, N-(tert-Butyl)-C-(2-carboxyphenyl)nitrone], the EC50 fell in the range of 100 to 500 µM.
For `[O-]/[N+](=C\c1ccccc1Sc1ccc(Cl)cc1)Cc1ccccc1` [Example 28, N-Benzyl-C-[2-(4-chlorophenylthio)phenyl]nitrone], the EC50 lay within 100 to 500 µM.
For the molecule `COC(=O)c1c(/C=[N+](\[O-])C2CCCCC2)cc(OC)cc1OC` [Example 5, N-Cyclohexyl-C-[2-(methoxycarbonyl)-3,5-dimethoxyphenyl]nitrone], the EC50 was 100 to 500 µM.
For the molecule `COC(=O)c1c(/C=[N+](\[O-])C(C)(C)C)cc(OC)cc1OC` [Example 4, N-(tert-Butyl)-C-[2-(methoxycarbonyl)-3,5-dimethoxyphenyl]nitrone], the EC50 fell in the range of 100 to 500 µM.
In the case of `CC(C)(C)/[N+]([O-])=C/c1ccccc1-n1cccn1` [Example 17, N-(tert-Butyl)-C-[2-(pyrazol-1-yl)phenyl]nitrone], the EC50 was greater than 1000 µM.
Regarding `COC(=O)c1ccccc1/C=[N+](\[O-])C(C)(C)C` [Example 1, N-(tert-Butyl)-C-[2-(methoxycarbonyl)phenyl]nitrone], the EC50 is 500 to 1000 µM.
In the case of “2(3)-tert-butylhydroquinone monomethyl ether [BHA, reference compound]”, the EC50 is less than 10 µM.
